Test results reported in US12686687B2, “Compounds and uses thereof” (Foghorn Therapeutics Inc., priority 2019, dated 2026).
Where two headings read alike, the source gives them in different places.

Assays:
[1] = biological target: T1, Nanoluciferase-BRD9 fusion protein (3×FLAG-NLuc-BRD9) in SYO-1 cells (Homo sapiens, UniProt Q9H8M2); experiment: SYO1 BRD9 NanoLuc degradation assay; type: cell-based; details: 1 μM top dose, read-out: SYO1 BRD9-NanoLuc degradation IC50
T1 construct: expressed in transfected cells; host or cells: SYO-1
T1 sequence (Q9H8M2 1-597): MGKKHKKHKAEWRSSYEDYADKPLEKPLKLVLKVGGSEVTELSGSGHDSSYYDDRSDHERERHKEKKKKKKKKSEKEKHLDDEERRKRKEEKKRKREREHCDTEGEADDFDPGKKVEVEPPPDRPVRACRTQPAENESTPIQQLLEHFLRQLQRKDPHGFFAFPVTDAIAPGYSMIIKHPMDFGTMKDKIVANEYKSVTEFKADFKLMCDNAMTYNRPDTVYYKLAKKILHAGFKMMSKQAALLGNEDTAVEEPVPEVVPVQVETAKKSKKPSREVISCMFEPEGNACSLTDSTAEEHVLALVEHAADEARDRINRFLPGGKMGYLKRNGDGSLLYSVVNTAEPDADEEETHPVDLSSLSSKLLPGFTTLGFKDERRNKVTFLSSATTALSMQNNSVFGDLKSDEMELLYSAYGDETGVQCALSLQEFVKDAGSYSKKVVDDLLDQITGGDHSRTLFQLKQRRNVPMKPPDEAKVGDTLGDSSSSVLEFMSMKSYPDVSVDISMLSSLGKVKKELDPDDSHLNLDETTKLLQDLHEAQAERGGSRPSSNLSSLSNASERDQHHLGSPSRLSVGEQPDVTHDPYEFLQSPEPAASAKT
Summary of the method: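 Stable SYO-1 line expressing 3×FLAG-NLuc-BRD9 was seeded at 8000 cells/well, then treated next day for 6 h with 10-point 3-fold dilutions (top 1 μM final). Nano-Glo luminescence was read. % inhibition was normalised to DMSO (high control) and 1 μM reference BRD9 degrader (low control).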

[2] = biological target: T2, BRD9 bromodomain (Flag-BRD9 P133-K239; Swiss Prot Q9H8M2) (Homo sapiens, UniProt Q9H8M2); experiment: BRD9 bromodomain TR-FRET competition binding assay; details: 3 nM Flag-BRD9, 3.75 nM biotinylated ligand, 90 minutes at room temperature
T2 construct: His-Flag-BRD9 (P133-K239); Swiss Prot Q9H8M2; His6 with TEV site (mgsshhhhhhenlyfq/) (N, cleaved yes); made in house
T2 sequence (Q9H8M2 133-239): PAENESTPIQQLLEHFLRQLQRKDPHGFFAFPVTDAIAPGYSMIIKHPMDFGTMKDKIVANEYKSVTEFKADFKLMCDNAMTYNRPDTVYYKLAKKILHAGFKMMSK
Protocol: Cleaved His tag was removed by purification. […] DMSO or 3-fold serially diluted compounds were then added to the Proxiplate followed by addition of Flag-BRD9. After a 10-minute incubation at room temperature, Eu-W1024 anti-FLAG (PerkinElmer, AD0273) was added.

[3] = Table 6C, SYO-1 cells expressing 3×FLAG-NLuc-BRD9, 6 hours incubation

Compound | DC50 ([1]; 6 hours treatment) [nM] | IC50 [2] [nM] | DC50 [1, 3] [nM]
COc1cc(-c2cn(C)c(=O)c3cc(C(=O)NC4CCC(=O)NC4)sc23)cc(OC)c1CN(C)C (centres unmarked) [Compound B5, 7-[4-[(dimethylamino)methyl]-3,5-dimethoxyphenyl]-5-methyl-4-oxo-N-(6-oxopiperidin-3-yl)-4H,5H-thieno[3,2-c]pyridine-2-carboxamide] |  | < 10 | 
Cn1cc(-c2cccc(C(F)(F)F)c2)c2sc(C(=N)NC3CCS(=O)(=O)NC3)cc2c1=O (centres unmarked) [Compound B1, N-(1,1-dioxo-1λ6,2-thiazinan-4-yl)-5-methyl-4-oxo-7-[3-(trifluoromethyl)phenyl]thieno[3,2-c]pyridine-2-carboximidamide] |  | > 10 | 
COc1ccc(-c2cn(C)c(=O)c3cc(-c4ncc[nH]4)sc23)cc1OC [Compound B9, 7-(3,4-dimethoxyphenyl)-2-(1H-imidazol-2-yl)-5-methyl-4H,5H-thieno[3,2-c]pyridine-4-one] |  | > 10 | 
COc1ccc(-c2cn(C)c(=O)c3ccsc23)cc1OC [Compound B10, 7-(3,4-dimethoxyphenyl)-5-methyl-4H,5H-thieno[3,2-c]pyridin-4-one] |  | > 10 | 
COc1cc(-c2cn(C)c(=O)c3cc(C(=O)N4CCN(C)CC4)sc23)cc(OC)c1CN(C)C [Compound B7, 7-[4-[(dimethylamino)methyl]-3,5-dimethoxyphenyl]-5-methyl-2-(4-methylpiperazine-1-carbonyl)-4H,5H-thieno[3,2-c]pyridin-4-one] |  | > 100 | 
COc1cc(-c2cn(C)c(=O)c3cc(-c4nc5ccncc5[nH]4)sc23)cc(OC)c1CN(C)C [Compound B2, 7-[4-[(dimethylamino)methyl]-3,5-dimethoxyphenyl]-2-[3H-imidazo[4,5-c]pyridin-2-yl]-5-methylthieno[3,2-c]pyridin-4-one] |  | < 10 | 
COc1cc(-c2cn(C)c(=O)c3cc(NC(=O)C4CCN(C)CC4)sc23)cc(OC)c1CN(C)C [Compound B3, N-(7-[4-[(dimethylamino)methyl]-3,5-dimethoxyphenyl]-5-methyl-4-oxo-4H,5H-thieno[3,2-c]pyridin-2-yl)-1-methylpiperidine-4-carboxamide] |  | > 10 | 
COc1cc(-c2cn(C)c(=O)c3cc(C(=N)NC4CCS(=O)(=O)CC4)sc23)ccc1OCC(=O)O [Compound B8, 2-(4-[2-[N-(1,1-dioxo-1λ6-thian-4-yl)carbamimidoyl]-5-methyl-4-oxo-4H,5H-thieno[3,2-c]pyridin-7-yl]-2-methoxyphenoxy)acetic Acid Trifluoroacetic Acid] |  | > 10 | 
COc1cc(-c2cn(C)c(=O)c3cc(NC(=O)C4CN(C)CCO4)sc23)cc(OC)c1CN(C)C (centres unmarked) [Compound B4, N-(7-[4-[(Dimethylamino)methyl]-3,5-dimethoxyphenyl]-5-methyl-4-oxo-4H,5H-thieno[3,2-c]pyridin-2-yl)-4-methylmorpholine-2-carboxamide Formic Acid] |  | > 10 | 
COc1cc(-c2cn(C)c(=O)c3cc(C(=O)NC4CCN(C)CC4)sc23)cc(OC)c1CN(C)C [Compound B6, 7-[4-[(dimethylamino)methyl]-3,5-dimethoxyphenyl]-5-methyl-N-(1-methylpiperidin-4-yl)-4-oxo-4H,5H-thieno[3,2-c]pyridine-2-carboxamide] |  | < 10 | 

Now from value to compound:

DC50 ([1]; 6 hours treatment) [nM] | IC50 [2] [nM] | DC50 [1, 3] [nM] | Compound
> 1000 | > 100 |  | COc1cc(-c2cn(C)c(=O)c3cc(NC(=O)C4CCN(C)CC4)sc23)cc(OC)c1CN(C)CC(=O)NCCOCCOc1cccc2c1C(=O)N(C1CCC(=O)NC1=O)C2=O (centres unmarked) [Compound D1, N-[7-(4-[[([[2-(2-[[2-(2,6-dioxopiperidin-3-yl)-1,3-dioxoisoindol-4-yl]oxy]ethoxy)ethyl]carbamoyl]methyl)(methyl)amino]methyl]-3,5-dimethoxyphenyl)-5-methyl-4-oxothieno[3,2-c]pyridin-2-yl]-1-methylpiperidine-4-carboxamide]
> 10 | > 10 |  | COc1cc(-c2cn(C)c(=O)c3cc(NC(=O)C4CCN(C(=O)CCOCCOCCNc5cccc6c5C(=O)N(C5CCC(=O)NC5=O)C6=O)CC4)sc23)cc(OC)c1CN(C)C (centres unmarked) [Compound D4, N-(7-[4-[(dimethylamino)methyl]-3,5-dimethoxyphenyl]-5-methyl-4-oxothieno[3,2-c]pyridin-2-yl)-1-[3-[2-(2-[[2-(2,6-dioxopiperidin-3-yl)-1,3-dioxoisoindol-4-yl]amino]ethoxy)ethoxy]propanoyl]piperidine-4-carboxamide]
< 10 | < 10 |  | COc1cc(-c2cn(C)c(=O)c3cc(NC(=O)C4CCN(C(=O)CCCCOc5cccc6c5C(=O)N(C5CCC(=O)NC5=O)C6=O)CC4)sc23)cc(OC)c1CN(C)C (centres unmarked) [Compound D12, N-(7-[4-[(dimethylamino)methyl]-3,5-dimethoxyphenyl]-5-methyl-4-oxothieno[3,2-c]pyridin-2-yl)-1-(5-[[2-(2,6-dioxopiperidin-3-yl)-1,3-dioxoisoindol-4-yl]oxy]pentanoyl)piperidine-4 carboxamide]
< 10 | > 10 |  | Cn1cc(-c2ccc(OCC(=O)NCCCCCCCCNc3cccc4c3C(=O)N(C3CCC(=O)NC3=O)C4=O)c(C(F)(F)F)c2)c2sc(C(=N)NC3CCS(=O)(=O)CC3)cc2c1=O (centres unmarked) [Compound D3, 2-(4-[2-[N-(1,1-dioxo-1λ6-thian-4-yl)carbamimidoyl]-5-methyl-4-oxo-4H,5H-thieno[3,2-c]pyridin-7-yl]-2-(trifluoromethyl)phenoxy)-N-(8-[[2-(2,6-dioxopiperidin-3-yl)-1,3-dioxo-2,3-dihydro-1H-isoindol-4-yl]amino]octyl)acetamide]
> 1000 | > 100 |  | COc1cc(-c2cn(C)c(=O)c3cc(NC(=O)C4CCCN(C(=O)CCOCCOCCNc5cccc6c5C(=O)N(C5CCC(=O)NC5=O)C6=O)C4)sc23)cc(OC)c1CN(C)C (centres unmarked) [Compound D5, N-(7-[4-[(dimethylamino)methyl]-3,5-dimethoxyphenyl]-5-methyl-4-oxothieno[3,2-c]pyridin-2-yl)-1-[3-[2-(2-[[2-(2,6-dioxopiperidin-3-yl)-1,3-dioxoisoindol-4-yl]amino]ethoxy)ethoxy]propanoyl]piperidine-3-carboxamide]
> 10 | < 10 |  | COc1cc(-c2cn(C)c(=O)c3cc(C(=N)NC4CCS(=O)(=O)CC4)sc23)ccc1OCC(=O)NCCCCCCCCNc1cccc2c1CN(C1CCC(=O)NC1=O)C2=O (centres unmarked) [Compound D2, 2-(4-[2-[N-(1,1-dioxo-A6-thian-4-yl)carbamimidoyl]-5-methyl-4-oxo-4H,5H-thieno[3,2-c]pyridin-7-yl]-2-methoxyphenoxy)-N-(8-[[2-(2,6-dioxopiperidin-3-yl)-1-oxo-2,3-dihydro-1H-isoindol-4-yl]amino]octyl)acetamide]
> 100 | > 10 |  | COc1cc(-c2cn(C)c(=O)c3cc(C(=O)NC4CCN(C)CC4)sc23)cc(OC)c1CN(C)CC(=O)NCCOCCOc1cccc2c1C(=O)N(C1CCC(=O)NC1=O)C2=O (centres unmarked) [Compound D14, 7-(4-[[([[2-(2-[[2-(2,6-dioxopiperidin-3-yl)-1,3-dioxoisoindol-4 yl]oxy]ethoxy)ethyl]carbamoyl]methyl)(methyl)amino]methyl]-3,5-dimethoxyphenyl)-5-methyl-N-(1-methylpiperidin-4-yl)-4-oxothieno[3,2-c]pyridine-2-carboxamide]
> 100 | > 100 |  | COc1cc(-c2cn(C)c(=O)c3cc(NC(=O)[C@@H]4CCCN(C(=O)CCCCOc5cccc6c5C(=O)N(C5CCC(=O)NC5=O)C6=O)C4)sc23)cc(OC)c1CN(C)C (stereo partly drawn) [Compound D7, (3R)—N-(7-[4-[(dimethylamino)methyl]-3,5-dimethoxyphenyl]-5-methyl-4-oxothieno[3,2-c]pyridin-2-yl)-1-(5-[[2-(2,6-dioxopiperidin-3-yl)-1,3-dioxoisoindol-4-yl]oxy]pentanoyl)piperidine-3-carboxamide]
 |  | < 10 | COc1cc(-c2cn(C)c(=O)c3cc(C(=O)NC4CCN(c5ccc6c(c5)C(=O)N(C5CCC(=O)NC5=O)C6)C4)sc23)cc(OC)c1CN(C)C (centres unmarked) [Compound D114]
 |  | < 10 | COc1cc(-c2cn(C)c(=O)c3ccsc23)cc(OC)c1CN1CCN(c2ccc3c(c2)C(=O)N(C2CCC(=O)NC2=O)C3)CC1 (centres unmarked) [Compound D194]
 |  | < 10 | COc1cc(-c2cn(C)c(=O)c3cc(C(=O)N[C@H]4CCN(c5ccc6c(c5)CN(C5CCC(=O)NC5=O)C6=O)CC4(F)F)sc23)cc(OC)c1CN(C)C (some centres unmarked) [Compound D151]
